# Assay results taken from ChEMBL document CHEMBL4130416, “Glycine-replaced derivatives of [Pro3,DLeu9]TL, a temporin L analogue: Evaluation of antimicrobial, cytotoxic and hemolytic activities” (Eur J Med Chem, 2017).
# The source made the active and inactive calls. The rule behind the calls is not given here. Where a SMILES comes first, the peptide text is derived from it. [ ]: non-standard residue; d: D form. Aic = NC1(C(=O)O)Cc2ccccc2C1
# How the values were obtained:
# HaCaT [1] = experiment: Cytotoxicity against human HaCaT cells at 1.56 to 6.25 uM after 24 hrs by MTT assay; type: cell-based
# HaCaT [2] = experiment: Cytotoxicity against human HaCaT cells at 12.5 uM after 24 hrs by MTT assay relative to control; type: cell-based
# [3] = tested on: Staphylococcus epidermidis; experiment: Antimicrobial activity against Staphylococcus epidermidis ATCC 12228 after 18 to 20 hrs by microbroth dilution method; type: functional
# Escherichia coli = experiment: Antimicrobial activity against Escherichia coli D21 after 18 to 20 hrs by microbroth dilution method; type: functional
# Pichia kudriavzevii = experiment: Antimicrobial activity against Candida krusei ATCC 6258 after 18 to 20 hrs by microbroth dilution method; type: functional
# Pseudomonas syringae = experiment: Antimicrobial activity against Pseudomonas syringae pv tabaci NCPPB 1918 after 18 to 20 hrs by microbroth dilution method; type: functional, Pseudomonas amygdali pv. tabaci
# HaCaT [4] = experiment: Cytotoxicity against human HaCaT cells at 25 uM after 24 hrs by MTT assay relative to control; type: cell-based
# Priestia megaterium = experiment: Antimicrobial activity against Bacillus megaterium Bm11 after 18 to 20 hrs by microbroth dilution method; type: functional
# Pseudomonas aeruginosa = experiment: Antimicrobial activity against Pseudomonas aeruginosa ATCC 27853 after 18 to 20 hrs by microbroth dilution method; type: functional
# Candida albicans [5] = experiment: Antimicrobial activity against Candida albicans ATCC 10231 after 18 to 20 hrs by microbroth dilution method; type: functional
# Staphylococcus aureus = experiment: Antimicrobial activity against Staphylococcus aureus Cowan I after 18 to 20 hrs by microbroth dilution method; type: functional
# HaCaT [6] = experiment: Cytotoxicity against human HaCaT cells at 50 uM after 24 hrs by MTT assay relative to control; type: cell-based
# Acinetobacter baumannii [7] = experiment: Antimicrobial activity against Acinetobacter baumannii ATCC 19606 after 18 to 20 hrs by microbroth dilution method; type: functional; settings: ATCC 19606 = CIP 70.34 = JCM 6841
# Acinetobacter baumannii [8] = experiment: Antimicrobial activity against Acinetobacter baumannii ATCC 19606 assessed as induction of membrane-perturbation at MIC measured every minute for 120 mins by SYTOX green fluorescence dye influx assay; type: functional, organism-based; settings: ATCC 19606 = CIP 70.34 = JCM 6841
# [9] = tested on: Staphylococcus epidermidis; experiment: Antimicrobial activity against Staphylococcus epidermidis ATCC 12228 assessed as membrane-perturbation measured every minute for 120 mins by SYTOX green fluorescence dye influx assay; type: functional, organism-based
# Candida albicans [10] = experiment: Antimicrobial activity against Candida albicans ATCC 10231 assessed as induction of membrane-perturbation at MIC measured every minute for 10 mins by SYTOX green fluorescence dye influx assay; type: functional, organism-based
Compound,Activity (HaCaT [1]),Activity (HaCaT [2]) [%],MIC [3] [µM],MIC (Escherichia coli) [µM],MIC (Pichia kudriavzevii) [µM],MIC (Pseudomonas syringae) [µM],Activity (HaCaT [4]) [%],MIC (Priestia megaterium) [µM],MIC (Pseudomonas aeruginosa) [µM],MIC (Candida albicans [5]) [µM],MIC (Staphylococcus aureus) [µM],Activity (HaCaT [6]) [%],MIC (Acinetobacter baumannii [7]) [µM],Activity (Acinetobacter baumannii [8]),Activity [9],Activity (Candida albicans [10])
CC[C@H](C)[C@H](NC(=O)[C@H](CCCNC(=N)N)NC(=O)[C@H]1C[C@@H](O)CN1C(=O)[C@@H](CC(C)C)NC(=O)[C@H](Cc1ccccc1)NC(=O)[C@H](CCCCN)NC(=O)[C@H](CO)NC(=O)[C@H](Cc1ccccc1)NC(=O)[C@H](Cc1c[nH]c2ccccc12)NC(=O)[C@@H]1CCCN1C(=O)[C@@H](NC(=O)[C@@H](N)Cc1ccccc1)C(C)C)C(=O)N[C@@H](CC(C)C)C(N)=O,Non-Toxic,0,50,25,3.12,> 50,0,3.12,> 50,3.12,> 50,0,25,,,
CC[C@H](C)[C@H](NC(=O)[C@H](CCCNC(=N)N)NC(=O)C1(NC(=O)[C@@H](CC(C)C)NC(=O)[C@H](Cc2ccccc2)NC(=O)[C@H](CCCCN)NC(=O)[C@H](CO)NC(=O)[C@H](Cc2ccccc2)NC(=O)[C@H](Cc2c[nH]c3ccccc23)NC(=O)[C@@H]2CCCN2C(=O)[C@@H](NC(=O)[C@@H](N)Cc2ccccc2)C(C)C)Cc2ccccc2C1)C(=O)N[C@@H](CC(C)C)C(N)=O (H-FVPWFSKF[dL][Aic]RIL-NH2),Non-Toxic,45.54,1.56,> 50,6.25,1.56,88.72,1.56,> 50,6.25,1.56,92.84,3.12,,,
"CCCC[C@H](NC(=O)[C@@H](CC(C)C)NC(=O)[C@H](Cc1ccccc1)NC(=O)[C@H](CCCCN)NC(=O)[C@H](CO)NC(=O)[C@H](Cc1ccccc1)NC(=O)[C@H](Cc1c[nH]c2ccccc12)NC(=O)[C@@H]1CCCN1C(=O)[C@@H](NC(=O)[C@@H](N)Cc1ccccc1)C(C)C)C(=O)N[C@@H](CCCNC(=N)N)C(=O)NC(C(=O)N[C@@H](CC(C)C)C(N)=O)[C@@H](C)CC (single isomer, unassigned)",Non-Toxic,12.25,3.12,25,3.12,6.25,65.86,3.12,50,3.12,3.12,99.76,6.25,,,
"CC[C@H](C)C(NC(=O)[C@H](CCCNC(=N)N)NC(=O)[C@H](CCCCN)NC(=O)[C@@H](CC(C)C)NC(=O)[C@H](Cc1ccccc1)NC(=O)[C@H](CCCCN)NC(=O)[C@H](CO)NC(=O)[C@H](Cc1ccccc1)NC(=O)[C@H](Cc1c[nH]c2ccccc12)NC(=O)[C@@H]1CCCN1C(=O)[C@@H](NC(=O)[C@@H](N)Cc1ccccc1)C(C)C)C(=O)N[C@@H](CC(C)C)C(N)=O (single isomer, unassigned)",Non-Toxic,49.3,3.12,12.5,1.56,6.25,66.86,3.12,12.5,1.56,6.25,96.79,3.12,,,
H-FVQWFSKFLGRIL-NH2,,,,,,,,,,,,,,Active,Active,Active
